Among the data in PubChem BioAssay (NCI) are GI50 and TGI values, retold here.

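1) Cells in 96-well plates. 2) Compound, 48 h, 5 concentrations. 3) Linear interpolation between surrounding doses. 4) Unreached endpoint = highest concentration. GI50 is the concentration that inhibits growth by half. TGI: total growth inhibition.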

Some test systems named below: NCI/ADR-RES ovarian; PC-3 prostate; MDA-MB-231 breast; M14 melanoma; HCT-15 colon; HOP-62 NSCLC; SR leukemia; SF-539 CNS; RXF 393 renal; K-562 leukemia.
What all share (experiment): growth of human tumour cells (NCI), 48 h

In the case of `O=C(CCN1CCCC1)Nc1ccc2c(NCCc3ccccc3)c3ccccc3nc2c1`, the GI50 with NCI/ADR-RES ovarian was 12 µM; in the assay with PC-3 prostate, 0.406 µM; in the assay on MDA-MB-231 breast it was 0.452 µM; in the assay with M14 melanoma it was 0.5 µM; in the assay with HCT-15 colon, 1.73 µM; in the assay on HOP-62 NSCLC, 0.389 µM. The GI50 in the assay with SR leukemia was 0.171 µM; in the assay on SF-539 CNS, 0.435 µM; in the assay on RXF 393 renal, 0.51 µM. Further, the TGI with NCI/ADR-RES ovarian is more than 62.9 µM; in the assay on PC-3 prostate it was 1.55 µM; in the assay on MDA-MB-231 breast it was 1.82 µM; in the assay with M14 melanoma, 1.81 µM; in the assay with HCT-15 colon it was 4.85 µM; in the assay with HOP-62 NSCLC, 1.76 µM. The results for the TGI in the assay on SR leukemia, in the assay with SF-539 CNS and with RXF 393 renal were 1.56 µM, 1.55 µM and 1.75 µM, respectively.

Consider `Cc1cn([C@H]2C[C@H](O)[C@@H](CO)O2)c(=O)nc1N`, for which the TGI in the assay on NCI/ADR-RES ovarian, in the assay with PC-3 prostate, in the assay on MDA-MB-231 breast, in the assay with M14 melanoma, with HCT-15 colon and in the assay on HOP-62 NSCLC was more than 100 µM throughout. Further, the TGI in the assay on SR leukemia, with K-562 leukemia and in the assay with SF-539 CNS was more than 100 µM each time.

`CCCCCCCCCCC[C@@H](C[C@H]1OC(=O)[C@H]1CCCCCC)OC(=O)[C@@H](CC(C)C)NC=O`: the GI50 is 2.86 µM with NCI/ADR-RES ovarian; 2.78 µM with PC-3 prostate; 1.53 µM in the assay with MDA-MB-231 breast; 6.1 µM in the assay on M14 melanoma; 2.65 µM with HCT-15 colon; 4.14 µM with HOP-62 NSCLC. Besides, the GI50 with SR leukemia is 3.52 µM; in the assay with K-562 leukemia, 4.36 µM; with SF-539 CNS, 5.48 µM; in the assay with RXF 393 renal it was 1.71 µM. Further, the TGI with NCI/ADR-RES ovarian turned out to be 15.2 µM; in the assay with PC-3 prostate it was 22.8 µM; with MDA-MB-231 breast it was 5.45 µM; in the assay with M14 melanoma, 87 µM; in the assay on HCT-15 colon, 46.8 µM; in the assay with HOP-62 NSCLC, 29.5 µM. The TGI amounted to 42.9 µM in the assay on SR leukemia, 47.3 µM in the assay with K-562 leukemia, 31 µM in the assay on SF-539 CNS and 16.8 µM with RXF 393 renal.

Regarding `CCOC(=O)c1ccccc1SC(C[N+](=O)[O-])c1ccccc1` (centres undefined), the GI50 in the assay with NCI/ADR-RES ovarian was 22.5 µM; with PC-3 prostate it was 4.4 µM; with MDA-MB-231 breast it was 9.1 µM; in the assay with M14 melanoma, 2.01 µM; with HCT-15 colon it was 2.37 µM; with HOP-62 NSCLC, 16.9 µM. For the same compound, the GI50 was 2.99 µM with SR leukemia, 3.01 µM in the assay on K-562 leukemia, 3.23 µM in the assay with SF-539 CNS and 1.64 µM with RXF 393 renal. The TGI amounted to 64.1 µM in the assay with NCI/ADR-RES ovarian; 16.6 µM with PC-3 prostate; 21.8 µM in the assay on MDA-MB-231 breast; 4.43 µM in the assay with M14 melanoma; 6.78 µM with HCT-15 colon; 32.1 µM with HOP-62 NSCLC. Also, the TGI in the assay on SR leukemia stood at 8.97 µM; with K-562 leukemia, 16 µM; with SF-539 CNS it was 12 µM; in the assay on RXF 393 renal, 3.09 µM.

As to `O=C(Nc1ccc(Nc2ccncc2)cc1)c1ccc(Nc2ccnc3ccc([N+](=O)[O-])cc23)cc1[N+](=O)[O-]`, the GI50 in the assay on NCI/ADR-RES ovarian is 12.8 µM; with PC-3 prostate, 5.05 µM; in the assay with MDA-MB-231 breast it was 24.6 µM; with M14 melanoma, 21.9 µM; in the assay with HCT-15 colon it was 35.6 µM; with HOP-62 NSCLC, 24.8 µM. The GI50 in the assay on SR leukemia was 16.6 µM; with K-562 leukemia, 36.4 µM; with SF-539 CNS it was 2.98 µM; with RXF 393 renal, 24.9 µM. Moreover, the TGI was more than 100 µM in the assay with NCI/ADR-RES ovarian; more than 40 µM in the assay on PC-3 prostate; more than 61.8 µM in the assay on MDA-MB-231 breast; more than 100 µM with M14 melanoma; more than 100 µM with HCT-15 colon; more than 100 µM in the assay with HOP-62 NSCLC. Besides, the TGI was 38.8 µM in the assay on SR leukemia, more than 100 µM in the assay on K-562 leukemia, 11.2 µM in the assay with SF-539 CNS and 42.5 µM in the assay on RXF 393 renal.

As to `Oc1ccc2ccccc2c1N=Nc1ccc(Cl)cc1`, the TGI with NCI/ADR-RES ovarian, in the assay with PC-3 prostate, in the assay with MDA-MB-231 breast, in the assay with M14 melanoma, with HCT-15 colon and with HOP-62 NSCLC was more than 100 µM each time. The TGI in the assay on SR leukemia, in the assay with K-562 leukemia and in the assay with RXF 393 renal was more than 100 µM each time.

As to `CC(C)C[CH2][Ge]([CH2]CC(C)C)([CH2]CC(C)C)[CH2]CC(C)C`, the GI50 in the assay with NCI/ADR-RES ovarian, in the assay on PC-3 prostate, in the assay on MDA-MB-231 breast, in the assay with M14 melanoma, with HCT-15 colon and in the assay with HOP-62 NSCLC was more than 100 µM in each case. Also, the GI50 in the assay with SR leukemia, in the assay with K-562 leukemia and in the assay with SF-539 CNS was more than 100 µM throughout. For the same compound, the TGI in the assay with NCI/ADR-RES ovarian, in the assay with PC-3 prostate, in the assay on MDA-MB-231 breast, in the assay on M14 melanoma, in the assay with HCT-15 colon and in the assay with HOP-62 NSCLC was more than 100 µM each time. Besides, the TGI with SR leukemia, in the assay with K-562 leukemia and in the assay on SF-539 CNS was more than 100 µM throughout.

For the compound `COc1cc(OC)c(F)c(COc2cnc(Nc3cnn(CCO)c3)nc2)c1F`, the GI50 was 0.726 µM in the assay on NCI/ADR-RES ovarian; 1.68 µM in the assay with PC-3 prostate; 1.38 µM in the assay on MDA-MB-231 breast; 0.482 µM with HCT-15 colon; 0.423 µM in the assay on HOP-62 NSCLC; 0.274 µM in the assay on SR leukemia. Besides, the GI50 in the assay with K-562 leukemia is 0.343 µM; with SF-539 CNS, 0.275 µM; in the assay with RXF 393 renal it was 0.188 µM. The TGI was more than 100 µM in the assay with NCI/ADR-RES ovarian; more than 100 µM in the assay with PC-3 prostate; 7.64 µM with MDA-MB-231 breast; more than 100 µM in the assay with HCT-15 colon; 4.58 µM in the assay on HOP-62 NSCLC; more than 100 µM with K-562 leukemia. For the same compound, the TGI in the assay on SF-539 CNS stood at 2.17 µM; in the assay with RXF 393 renal it was 2.44 µM.

Turning to `COc1cc(-c2nc(-c3ccc(-c4nc5ccc(F)cc5[nH]4)cc3)no2)cc(OC)c1OC`, the GI50 in the assay with NCI/ADR-RES ovarian was 2.49 µM; in the assay on PC-3 prostate it was 2.33 µM; in the assay on MDA-MB-231 breast, 2.39 µM; in the assay with M14 melanoma, 3.23 µM; in the assay with HCT-15 colon, 3.15 µM; with HOP-62 NSCLC, 3.21 µM. The values for the GI50 in the assay with SR leukemia, with SF-539 CNS and in the assay with RXF 393 renal were 2.98 µM, 3.38 µM and 1.9 µM, respectively. Also, the TGI in the assay on NCI/ADR-RES ovarian was 8.26 µM; in the assay with PC-3 prostate it was 7.59 µM; in the assay on MDA-MB-231 breast, 7.66 µM; in the assay on M14 melanoma, 10.5 µM; in the assay on HCT-15 colon, 12.8 µM; in the assay on HOP-62 NSCLC, 9.15 µM. The figures for the TGI in the assay with SR leukemia, in the assay on SF-539 CNS and in the assay with RXF 393 renal were more than 100 µM, 18.7 µM and 5.44 µM, respectively.
